Columns and labels:
[1] = system: GL-26 murine glioma cells; test: SRB growth assay of SBP and gold complexes on GL-26 (Example 4); format: cell-based, murine (C57BL/6); settings: Mus musculus, GL26, 48 hr, read-out: concentration inhibiting GL-26 by 50%
Description: The murine (C57BL/6) glioma cell line, GL-26, which is highly tumorigenic in the C57BL/6 mice, was used. GL-26 cells were cultured in DMEM/F12 supplemented with 10% FCS, 1% penicillin/streptomycin, 1% L-glutamine and 1% non-essential amino acids. Human foreskin fibroblasts (HFFs) were cultured in DMEM/F12 supplemented with 10% FCS and 1% penicillin/streptomycin. Primary murine astrocytes were purified from C57BL/6 neonate brains and cultured in DMEM/F12 supplemented with 10% FCS, 1% non-essential amino acids, 1% L-glutamine, 50 IU/ml penicillin, […] and 10 mM Hepes buffer.
The sulforhodamine B (SRB) cytotoxicity assays were adapted from Skehan et al (21). Briefly, either HFF, primary astrocytes or GL-26 cells were plated in 96-well plates at a density of 4,000 cells/well in a volume of 100 µL overnight at 37° C. and 5% CO2. DMSO stock solutions of SBP, MSBP or TMZ were used at a concentration range of 0.1-25 μM for 48 hr before the supernatant was discarded and the cells were fixed for 1 hr with 10% cold trichloroacetic acid (100 μL per well). Cells used in recovery assay received fresh media for 48 hrs following the 48 hr drug incubation. […] Bound SRB was then read by absorbance at 492 nm on a SpectraMax plate reader (Molecular Devices). The percent survival was then calculated based upon the absorbance values relative to control wells (0 μM SBP in 0.1% DMSO).

GL-26 glioma = test: In-vivo intracranial GL-26 glioma model; set-up: species or system C57BL/6 mice
Description: Female C57BL/6 mice were obtained from Jackson Laboratories and maintained in a pathogen free environment under IACUC established protocols at the University of California Riverside. Mice were anesthetized with continuous administration of 2.5% isofluorane. Cultured GL-26 cells were harvested by trypsinization and 90,000 GL-26 cells in 3 μL of sterile Na+/K+ balanced PBS were injected intracranially. The injection was administered 1 mm anterior and 2 mm lateral to the junction of the coronal and sagittal sutures (bregma), at a depth of 2 mm using a stereotactic mouse frame. Care was taken in alternating injection order and group assignment (treated vs. non-treated) to assure equal GL-26 cell viability between the two treatment groups. SBP was administered intravenously through the retro-orbital route at a concentration of 10 mg/kg in 200 μL sterile Na+/K+ balanced PBS. Drug was administered one, seven, and 13 days after tumor implantation.
(§1) Histology: For brain tumor histology, mice were perfused intracardially with 4% formaldehyde in Na+/K+ balanced PBS and brains were extracted, incubated in 4% formaldehyde overnight followed by 30% sucrose in Na+/K+ balanced PBS. Brains were flash frozen in isopentane, embedded in optimal cutting temperature compound (OCT), cryosectioned in coronal sections (12 μm) and stained with hematoxylin and eosin. Another cohort of equivalently drug-treated mice was used for liver, lung and gut histology. The mice were then sacrificed on day 19, and the liver, lung and gut tissues were collected and placed in 4% formaldehyde in Na+/K+ balanced PBS overnight. The organs were then placed for 48 hrs in 70% EtOH before paraffin embedding and sectioning at 6 μm. Sections were then stained with hematoxylin and eosin and pathology was assessed blindly and independently by a trained pathologist. A TUNEL staining kit was obtained from TREVIGEN (NeuroTACS II In Situ Apoptosis Detection Kit, Cat#4823-30-K) and used for both ex-vivo slices and in-vitro staining according to manufacturers instructions.

[2] = Peripheral pathology and liver toxicity in non-tumor bearing mice; format: in vivo, C57BL/6 mice
Description: as §1
Intra-cardial blood was collected from the non-tumor bearing mice and subjected to centrifugation for 10 minutes to collect the serum. Aspartate transaminase and Alanine transaminase levels were measured in the serum using Bio Scientific (3913 Todd Lane Suite 312 Austin, Tex.) colorimetric kits (Cat#5605-01 and 3460-08 respectively).
To test if the low level of growth inhibition noted in HFF cells translated into lower systemic toxicity in-vivo, non-tumor bearing control and treatment groups of mice were treated with saline and SBP (10 mg/kg), respectively, on days one, seven, and 13. On day 19 following the first SPB or saline injection, the liver, lungs and proximal small intestine were collected for histopathological analysis.

[3] = system: primary murine astrocytes; test: SRB toxicity assay on primary murine astrocytes; format: cell-based, murine (C57BL/6); settings: Mus musculus, Astrocyte
Description: The murine (C57BL/6) glioma cell line, GL-26, which is highly tumorigenic in the C57BL/6 mice. GL-26 cells were cultured in DMEM/F12 supplemented with 10% FCS, 1% penicillin/streptomycin, 1% L-glutamine and 1% non-essential amino acids. Human foreskin fibroblasts (HFFs) were cultured in DMEM/F12 supplemented with 10% FCS and 1% penicillin/streptomycin. Primary murine astrocytes were purified from C57BL/6 neonate brains and cultured in DMEM/F12 supplemented with 10% FCS, 1% non-essential amino acids, 1% Lglutamine, 50 IU/ml penicillin, […] and 10 mM Hepes buffer.
The sulforhodamine B (SRB) cytotoxicity assays were adapted from Skehan et al. (22). Briefly, either HFF, primary astrocytes or GL-26 cells were plated in 96-well plates at a density of 4,000 cells/well in a volume of 100 µL overnight at 37° C. and 5% CO2. DMSO stock solutions of SBP, MSBP or TMZ were used at a concentration range of 0.1-25 μM for 48 hr before the supernatant was discarded and the cells were fixed for 1 hr with 10% cold trichloroacetic acid (100 μL, per well). Cells used in recovery assay received fresh media for 48 hrs following the 48 hr drug incubation. The plate was then washed 5 times with de-ionized water, air dried, and stained with 0.4% SRB for 10 min (50 μL, per well). After washing 5 times in 1% acetic acid and air-drying, bound SRB was dissolved in 10 mM unbuffered Tris base (pH 10.5; 100 μL, per well). Bound SRB was then read by absorbance at 492 nm on a SpectraMax plate reader (Molecular Devices). The percent survival was then calculated based upon the absorbance values relative to control wells (0 μM SBP in 0.1% DMSO).

[4] = 10 mg/kg days 1, 7, 13, day 19, non-tumor bearing mice

SMILES: CCC(C)c1ccc2ccc3ccc(C(C)CC)nc3c2n1 (centres unmarked) [Compound 1, 2,9-di-sec-butyl-1,10-phenanthroline]
- IC50 [1]: 800 to 1600 nM
- body weight regained, % of initial weight (GL-26 glioma; 10 mg/kg i.v. days 1, 7, 13, 19-day trial): 98.1±3.4%
- tumor section area (pixel area) at the largest tumor cross-section (GL-26 glioma; 10 mg/kg i.v. days 1, 7, 13, sacrificed day 19, N=3): 5489±1369
- in situ TUNEL staining of brain tumor sections (GL-26 glioma; day 19): dark brown cytoplasmic and nuclear staining indicative of cell necrosis and increased DNA fragmentation
- tumors in treated mice smaller than in untreated control mice (GL-26 glioma; mouse, in vivo): 5-10 times
- histopathology, duodenum ([2]; 10 mg/kg days 1, 7, 13, day 19): no general pathology
- histopathology, liver ([2]; 10 mg/kg days 1, 7, 13, day 19): some endothelial damage, but no overt hepatocyte damage
- histopathology, lung ([2]; 10 mg/kg days 1, 7, 13, day 19): no overt pathology
- serum alanine transaminase (ALT) [2, 4]: 49.71±14.61 U/L
- serum aspartate transaminase (AST) [2, 4]: 212.3±14.62 U/L
- side effects in healthy mice ([2]; mouse, in vivo): did not appear to experience any significant side effects
- inhibition at 6 µM ([3]; 6 μM, 48 hours, read-out: astrocyte growth inhibition): 18%
- inhibition at 25 µM ([3]; 25 μM, 48 hours, read-out: astrocyte growth inhibition): 37.3 ± 0.9%
- IC50 ([3]; not reached at 25 μM, read-out: IC50 on non-cancerous glial cells (astrocytes)): > 25000 nM

— patent US20150125550A1, “APPLICATION OF 2,9-DI-SEC-BUTYL-1,10-PHENANTHROLINE AS A GLIOBLASTOMA TUMOR CHEMOTHERAPY” (priority 2013, published 2015)
